Measured values as given in the NIST ThermoML archive (doi:10.1021/je400630f).

Assay: xn = mol fraction of the nth substance listed
Conditions: 100 kPa, Liquid; for viscosity: Capillary tube (Ostwald / Ubbelohde) method

CCCCCO [pentan-1-ol] + CCO
Conditions	mass density, 283.15 K [kg/m3]	mass density, 293.15 K [kg/m3]	mass density, 298.15 K [kg/m3]	mass density, 303.15 K [kg/m3]	mass density, 313.15 K [kg/m3]	viscosity, 283.15 K [mPa·s]	viscosity, 293.15 K [mPa·s]	viscosity, 298.15 K [mPa·s]	viscosity, 303.15 K [mPa·s]	viscosity, 313.15 K [mPa·s]
x2 = 0	822.1	814.7	811.2	807.5	800	5.417	3.974	3.441	2.99	2.263
x2 = 0.1	820.6	813.2	810	805.8	798.3	4.879	3.595	3.154	2.741	2.1
x2 = 0.2	819.4	812	808.3	804.6	797	4.379	3.263	2.874	2.506	1.931
x2 = 0.2998	817.8	810.3	806.6	802.8	795.1	3.892	2.935	2.587	2.27	1.771
x2 = 0.3999	815.4	807.8	804.2	800.2	792.4	3.404	2.619	2.324	2.05	1.61
x2 = 0.4997	813.3	805.6	801.8	797.9	790	2.966	2.328	2.07	1.828	1.452
x2 = 0.6	811	803.2	799.6	795.4	787.4	2.564	2.04	1.833	1.628	1.312
x2 = 0.7	808.4	800.5	796.4	792.5	784.3	2.234	1.796	1.631	1.453	1.179
x2 = 0.8	805.3	797.3	793.7	789.1	780.8	1.938	1.583	1.435	1.285	1.062
x2 = 0.8999	802	793.7	790.4	785.3	776.8	1.693	1.381	1.256	1.141	0.956
